Assay results taken from ChEMBL document CHEMBL2169865, “Selective class I phosphoinositide 3-kinase inhibitors: optimization of a series of pyridyltriazines leading to the identification of a clinical candidate, AMG 511” (J Med Chem, 2012).

Legend:
[1] = in vitro; settings: rat, liver microsomes
[2] = in vitro; settings: human, liver microsomes
[3] = in vivo; settings: Sprague-Dawley, rat, po, 2 mg/kg
[4] = in vivo; settings: Sprague-Dawley, rat, iv, 1 mg/kg
[5] = in vivo; settings: Sprague-Dawley, rat, plasma, po, 2 mg/kg
[6] = in vivo; settings: Sprague-Dawley, rat, iv, 1 mg/kg; remark: listed apart in the source
[7] = in vivo; settings: Sprague-Dawley, rat, iv, 1 mg/kg; remark: listed apart in the source
[8] = tested on: Hepatocyte; settings: rat, hepatocytes, 4 h, 3 µM
[9] = tested on: Hepatocyte; settings: rat, hepatocytes, 4 h, 3 µM; remark: listed apart in the source

SMILES | microsomal CLint at 0.5 h, 1 µM [1] | microsomal CLint at 0.5 h, 1 µM [2] | bioavailability [3] | MRT [4] | AUC [5] | clearance [6] | Vd [7] | Drug metabolism [8] | Drug metabolism [9]
COc1ncc(Nc2ncc(CN3CCN(S(C)(=O)=O)C[C@H]3C)cc2-c2nc(C)nc(N)n2)cc1F | 120 µL/min/mg | 29 µL/min/mg |  |  |  |  |  |  | 
COc1ncc(Nc2ncc([C@@H](N3CCN(S(C)(=O)=O)CC3)C(F)(F)F)cc2-c2nc(C)nc(N)n2)cc1F | 17 µL/min/mg | 23 µL/min/mg |  |  |  |  |  |  | 
COc1ncc(Nc2ncc([C@@H](C)N3CCN(S(C)(=O)=O)C[C@@H]3C)cc2-c2nc(C)nc(N)n2)cc1F | 69 µL/min/mg | 67 µL/min/mg | 49% | 3.1 h | 1.4 µM·h | 21.7 mL/min/kg | 4 L/kg |  | 
Cc1nc(N)nc(-c2cc(CN3CCN(S(C)(=O)=O)CC3)cnc2Nc2ccc(=O)[nH]c2)n1 | < 14 µL/min/mg |  |  |  |  |  |  |  | 
Cc1nc(N)nc(-c2cc(CN3CCN(S(C)(=O)=O)CC3)cnc2Nc2ccc(C(F)(F)F)nc2)n1 | 22 µL/min/mg | < 14 µL/min/mg |  |  |  |  |  |  | 
COc1ncc(Nc2ncc(CN3CCN(S(C)(=O)=O)CC3)cc2-c2nc(C)nc(N)n2)cn1 | 14 µL/min/mg | 14 µL/min/mg |  |  |  |  |  |  | 
COc1ncc(Nc2ncc(CN3CCN(S(C)(=O)=O)CC3)cc2-c2nc(C)nc(N)n2)cc1F | 30 µL/min/mg | < 14 µL/min/mg | 45% | 1.7 h | 0.95 µM·h | 33.3 mL/min/kg | 3.3 L/kg | Not Active | Active
Cc1nc(N)nc(-c2cc(CN3CCN(S(C)(=O)=O)CC3)cnc2Nc2cncc(F)c2)n1 | 30 µL/min/mg | < 14 µL/min/mg |  |  |  |  |  |  | 
COc1cncc(Nc2ncc(CN3CCN(S(C)(=O)=O)CC3)cc2-c2nc(C)nc(N)n2)c1 | 29 µL/min/mg | 14 µL/min/mg |  |  |  |  |  |  | 

Now from value to compound:

microsomal CLint at 0.5 h, 1 µM [1] | microsomal CLint at 0.5 h, 1 µM [2] | bioavailability [3] | MRT [4] | AUC [5] | clearance [6] | Vd [7] | Drug metabolism [8] | Drug metabolism [9] | SMILES
54 µL/min/mg | 41 µL/min/mg | 60% | 3.2 h | 2.3 µM·h | 16.7 mL/min/kg | 3.2 L/kg |  |  | COc1ncc(Nc2ncc(CN3CCN(S(C)(=O)=O)C[C@@H]3C)cc2-c2nc(C)nc(N)n2)cc1F
22 µL/min/mg | 25 µL/min/mg |  |  |  |  |  |  |  | COc1ncc(Nc2ncc([C@H](N3CCN(S(C)(=O)=O)CC3)C(F)(F)F)cc2-c2nc(C)nc(N)n2)cc1F
113 µL/min/mg | 64 µL/min/mg |  |  |  |  |  |  |  | COc1ncc(Nc2ncc([C@@H](C)N3CCN(S(C)(=O)=O)C[C@H]3C)cc2-c2nc(C)nc(N)n2)cc1F
174 µL/min/mg | 54 µL/min/mg |  |  |  |  |  |  |  | COc1ncc(Nc2ncc([C@H](C)N3CCN(S(C)(=O)=O)C[C@H]3C)cc2-c2nc(C)nc(N)n2)cc1F
128 µL/min/mg | 80 µL/min/mg |  |  |  |  |  |  |  | COc1ncc(Nc2ncc([C@H](C)N3CCN(S(C)(=O)=O)C[C@@H]3C)cc2-c2nc(C)nc(N)n2)cc1F
58 µL/min/mg | 81 µL/min/mg | 24% | 4.9 h | 1.3 µM·h | 11.7 mL/min/kg | 3.5 L/kg |  |  | COc1ncc(Nc2ncc(C(C)(C)N3CCN(S(C)(=O)=O)CC3)cc2-c2nc(C)nc(N)n2)cc1F
24 µL/min/mg | < 14 µL/min/mg |  |  |  |  |  |  |  | Cc1nc(N)nc(-c2cc(CN3CCN(S(C)(=O)=O)CC3)cnc2Nc2ccc(Cl)nc2)n1
22 µL/min/mg | < 14 µL/min/mg |  |  |  |  |  |  |  | Cc1ccc(Nc2ncc(CN3CCN(S(C)(=O)=O)CC3)cc2-c2nc(C)nc(N)n2)cn1
